From US8946261B2, “Substituted 1, 2, 3, 4-tetrahydroquinolin-7-yl carbamates as acetylcholinesterase inhibitors for treatment of Alzheimer's disease” (priority 2011, dated 2015) come the findings set out here.

By IC50 is commonly meant the point on the concentration scale where inhibition reaches its midpoint. Read a high IC50 as weaker potency in that assay. By inhibition is commonly meant the relative decrease from the control value, in per cent.

In data set [1] the target is T1, Acetylcholinesterase (AChE) (Mus musculus, UniProt P21836).
T1 construct: A 10% (w/v) homogenate of brain was prepared; from tissue; host or cells: whole brain of adult Swiss albino mice; supernatant (100,000 g) of the 1% Triton X-100 treated homogenate
T1 sequence (P21836 32-614): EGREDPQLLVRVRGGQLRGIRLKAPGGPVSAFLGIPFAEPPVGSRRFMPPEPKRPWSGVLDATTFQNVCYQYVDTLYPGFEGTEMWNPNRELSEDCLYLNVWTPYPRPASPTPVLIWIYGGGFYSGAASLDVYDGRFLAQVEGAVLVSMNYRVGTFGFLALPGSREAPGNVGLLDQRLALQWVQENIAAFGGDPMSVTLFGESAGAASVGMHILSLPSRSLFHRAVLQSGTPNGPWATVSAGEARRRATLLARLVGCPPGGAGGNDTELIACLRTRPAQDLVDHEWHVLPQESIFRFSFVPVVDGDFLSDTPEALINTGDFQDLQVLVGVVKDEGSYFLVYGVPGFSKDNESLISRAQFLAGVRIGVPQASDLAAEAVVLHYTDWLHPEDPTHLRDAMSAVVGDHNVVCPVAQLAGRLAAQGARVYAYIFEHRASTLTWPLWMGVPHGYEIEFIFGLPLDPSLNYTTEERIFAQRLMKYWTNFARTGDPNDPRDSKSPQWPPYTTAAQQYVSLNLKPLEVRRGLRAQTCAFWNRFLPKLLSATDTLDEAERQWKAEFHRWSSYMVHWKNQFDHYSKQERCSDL
Briefly: Acetylcholinesterase (AChE) assay in brain (in vitro), Ellman method. The format is biochemical, Swiss albino mice. On the procedure:
Acetylcholinesterase (AChE) Assay in Brain (In Vitro)
The mice were perfused under mild ether anesthesia through heart with ice cooled normal saline (0.9% NaCl) to remove blood-born cholinesterase from the brain. After perfusion the whole brain was taken out. A 10% (w/v) homogenate of brain was prepared first by homogenizing in an Ultra-Turrax T25 homogenizer at a speed of 9500 rpm thrice giving intervals for few seconds in between the runs, with sodium phosphate buffer (0.03 M, pH-7)).
The brain homogenate in volume of 500 μl was mixed with 1% Triton X-100 (1% w/v in 0.03M sodium phosphate buffer, pH-7) and centrifuged at 100,000 g at 4° C. in a Beckman Ultracentrifuge (LE 80, USA), using a fixed angle rotor (80 ti) for 60 min. Supernatant was collected and stored at 4° C. for acetylcholinesterase estimation.
The assay for each sample was run in triplicate and each experiment was performed twice.
The specific activity of AChE is expressed in μM/min/mg of protein.
The test substance (dissolved in ethanol) was incubated with enzyme source in different concentrations ([…]) for 30 min at 37° C. prior to obtain kinetic profile of AChE activity. […] The AChE inhibitory activity was calculated on the basis of % decrease in AChE activity from control values i.e. AChE activity without incubation with any standard or test drug.
The results are expressed as mean±S.E.M. Statistical analysis of passive avoidance values were performed by t-test. The IC50 value was calculated by non linear regression method using GraphPad Prism software.
For orientation: Ellman's reagent forms a yellow product with free thiols.

The subject of data set [2] is scopolamine induced amnesia in mice. The experiment in a line: Passive avoidance test, scopolamine induced amnesia (in vivo). The following applies: oral 3.75, 7.5 and 15 mg/kg 1 hr prior to 1st trial, scopolamine 3 mg/kg IP, FIG. 3. On the set-up: species or system Swiss albino male mice. How it is done: Passive avoidance test is widely used as experimental model to assess learning and memory functions in rodents. Scopolamine induced impairment in passive avoidance (in vivo) and inhibition of acetylcholinesterase (in vitro) in rodents are commonly employed screening tests to predict potential of a compound as acetylcholinesterase inhibitor and anti-amnesic drug (Das et al., 2002).
[…]. Mice were kept in standard housing condition with 12 h light and dark cycle. The food and water were available ad libitum.
The passive avoidance test was carried out as described by Tota et al., 2009. The mice were subjected to the passive avoidance test by placing in a compartment with light at intensity of 8 [Scale from 0 to 10 (brightest)] in a computerized shuttle box with a software programme PACS 30 (Columbus Instruments, Ohio, USA).
The light compartment was isolated from the dark compartment by an automated guillotine door. After an acclimatization period of 30 s, the guillotine door was opened and closed automatically after entry of the mouse into the dark compartment. The subject received a low-intensity foot shock (0.5 mA; 10 s) in the dark compartment. Infrared sensors monitored the transfer of the animal from one compartment to another which was recorded as transfer latency time (TLT) in seconds. […]

For a further data set, the system named is Swiss albino male mice. The experiment in a line: Gross behavioral study. As to conditions: 125 mg/kg oral dose, 125 mg/kg.
The mark [3] stands for this setting: read-out: % Inhibition of AChE enzyme.

The structures appear in SMILES notation. Where “and” joins values, the source holds several entries; their conditions need not be identical. Equal entries are not always repeated. Entries after “also recorded” stand apart in the source; their conditions may differ.

On to `CN(C)C(=O)Oc1ccc2c(c1)N(Cc1ccccc1)CCC2` [Compound 8k, 1-benzyl-1,2,3,4-tetrahydroquinolin-7-yl dimethylcarbamate], for which the IC50 in data set [1] is 99 ± 3 nM. Also, in data set [1] (comparison with Tacrine), the “AChE inhibitory activity compared to Tacrine” value is given as “almost equal or even slightly better”. In addition, the “AChE inhibitory activity, fold better compared to the drug rivastigmine” value in data set [1] (fold better than rivastigmine) is 12 fold and 10 fold. Further, in data set [1] (setting [3]), the inhibition at 10 µM was 95.5% and the inhibition at 100 µM worked out at 98%. In data set [2], the “improvement in learning (transfer latency time, passive avoidance)” value was “shown potential towards the improvement in learning of mice and almost comparable to the drug Rivastigmine and Tacrine”. Also, in the data set on Swiss albino male mice, the tolerability entry is on record as “Well tolerated”. The “cholinergic symptoms / side effects” value in the data set on Swiss albino male mice (upto 24 hrs of drug administration) is “no cholinergic symptoms and mortality was observed; also recorded: free from any observable side peripheral side effect; also recorded: No cholinergic symp-”.
